Patent US20200378956A1, “HUMAN MICROPHYSIOLOGICAL CELL SYSTEM FOR LIVER DISEASE CONVERSTION PROV 1-18585 AND PROV 2-19154” (EMULATE, INC., priority 2018, published 2020)
Where two headings read alike, the source gives them in different places. Values belong to the compound of their own block, whether it stands above or below them.

What was measured:
[1] = test system: hepatocyte microchip co-culture system (e.g., Liver-Chip); test: Fatty acid-induced steatosis in WEN/CSC media (Example IV); format: cell-based
Method: This example was performed on a hepatocyte microchip co-culture system (e.g., Liver-Chip). As a control condition, normal cell culture media “diet” (WEN media) was flowed through the top channel of the microchip, while a CSC 10% SFB was flowed through the bottom channel of the microchip. […] The following measurements were taken: i) Lipid drop staining with Nile Red®; ii) cholesterol quantification; iii) free fatty acid quantification; and iv) glucose quantification.

[2] = test system: tri-culture of hepatocytes, liver sinusoidal endothelial cells (LSECs) and Kupffer cells; test: In vitro NASH model, high fat diet and LPS on tri-culture hepatocyte microchip; format: cell-based
Method: For example, a tri-culture of hepatocytes, liver sinusoidal endothelial cells (LSECs) and Kupffer cells were cultured on a hepatocyte microchip and exposed to a high fat diet comprising oleic acid. Subsequently, LPS (1 μg/ml ) was added to the high fat diet media to induce a Kupffer cell-mediated inflammatory response. […] See, FIG. 20B. When oleic acid exposure is supplemented with LPS the observance of stained lipid droplets decreases. See, FIG. 20C. […] See, FIG. 20D. […] See, FIG. 21A. […] See, FIG. 22A cf FIG. 22B. […] See, FIG. 23.

[3] = test system: co-culture of hepatocytes and liver sinusoidal endothelial cells (LSECs); test: In vitro NAFLD model, high fat diet on co-culture hepatocyte microchip; format: cell-based
Method: For example, a co-culture of hepatocytes and liver sinusoidal endothelial cells (LSECs) cultured on a hepatocyte microchip were exposed to a high fat diet comprising of oleic acid ([…]) for up to two days. Accumulating fat droplets within these cultured hepatocytes were identified with AdipoRed® or NileRed® staining. […] See, FIG. 15. […] See, FIGS. 16A-C. Additionally, the number of lipid droplets were quantitated as well as the accompanying glucose level was determined. […] See, FIG. 18A. […] See, FIG. 18B. Photomicrographs of LSEC mitochondrial function correlate in a positive manner with twenty-four (24) hours of a high fat cell diet. See, FIG. 18C. Photomicrographs of hepatocyte mitochondrial function correlate in a positive manner after twenty-four (24) hours of a high fat cell diet. See, FIG. 18D. […] See, FIG. 19. […] The high fat diet exposure between 24-48 hours was also performed with and without the insulin-secretion agonist, Exendin. See, FIG. 60A. […] See, FIGS. 60B, 62C, 17A-B.

Liver-Chip hepatocytes = test: Ethanol / LPS dosing Liver-Chip study (FIG. 81-83)
Method: Oxidative stress was measured by staining of ROS-positive hepatocytes with MitoSOX™ Red (a fluorogenic dye specifically targeted to mitochondria in live cells. Oxidation of MitoSOX™ Red reagent produces red fluorescence.
Oxidation (red) is shown in the lower row stained with MitoSOX™ Red.

2D models = conditions: i.e., ~0.4%; cited from earlier work
[4] = test system: tri-culture of hepatocytes and Kupffer cells; conditions: for cholesterol release: ethanol 0.04-0.16% BAC
[5] = test system: human hepatocyte microchips; test: Bosentan ALT release, hepatocyte microchip culture; format: cell-based; conditions: various concentrations of bosentan
Source text: (§1) FIG. 49A-B presents exemplary data showing the release of alanine transaminase (ALT) in response to various concentrations of bosentan. • FIG. 49A: Human hepatocyte microchip culture. • FIG. 49B: Human hepatocyte conventional plate cell culture.
(§2) These microfluidic systems also enable high-resolution, real-time imaging coupled with a capability for in vitro analysis of biochemical, genetic and metabolic activities, all in the functional context of living tissue. This technology can be used to evaluate tissue development, organ physiology and/or disease etiology. In the context of drug discovery, including safety and efficacy, this technology is especially valuable for the study of molecular mechanisms of action, prioritization of lead candidates, toxicity testing and biomarker identification. Bhatia et al., “Microfluidic organs-on-chips” Nature Biotechnology 2014, 32(8):760-772. […] See, FIGS. 54A-B.

[6] = test system: sodium/bile acid cotransporter; test: Bosentan effect on co-transporter gene expression; format: cell-based; conditions: after three (3) days of culture
Source text: FIG. 50A-B presents exemplary data showing the effect of bosentan on co-transporter gene expression. • FIG. 50A: Sodium/bile co-transporter. • FIG. 50B: Bile Salt Export Pump (BSEP, ABCB11) co-transporter.
as §2

[7] = test system: Human hepatocyte conventional plate cell culture; test: Bosentan ALT release, conventional plate cell culture; format: cell-based; conditions: various concentrations of bosentan
Source text: as §1, §2

[8] = test system: Bile Salt Export Pump (BSEP, ABCB11); test: Bosentan effect on co-transporter gene expression; format: cell-based; conditions: after three (3) days of culture
hepatic stellate cells = test: Fibrosis development in the Liver-Chip; format: cell-based; conditions: FIG. 46B
[9] = test system: quadruple co-culture of hepatocytes, Kupffer cells, LSEC cells and Stellate cells; test: Quadruple co-culture cell activation; format: cell-based; conditions: FIG. 13B
[10] = test system: co-culture hepatocyte microchip; test: Fructose-induced liver injury on co-culture hepatocyte microchip; format: cell-based
Method: The cell culture media effluent was analyzed for triglycerides, glycogen and glucose from both the top and bottom channels of the microchannel. See, Example 1. Cell imaging analysis of lipid droplet accumulation was performed with AdipoRed® and visualized with brightfield imaging.
The hepatocyte cells and endothelial cells were seeded and incubated as a co-culture in a hepatocyte microchip and samples were collected a specific time points. See, FIG. 32.
The specific media compositions were as follows: • Liver culture media: • Top Channel: DMEM (LG) 0% FBS, NEAA 1:200, ITSG 1:10,000, Vitamin C & dexamethasone
To each media, either a 1:1 glucose:fructose ratio (low fructose) or a 0.7:1.4 glucose:fructose ratio (high fructose) is added.

hepatocytes = conditions: both the hepatocyte channel and the LSEC/Kupffer-cell channel
[11] = oleic acid (0.1 to 0.5 μM) for up to two days
[12] = liver culture media, 48 hours, low or high fructose

LSEC morphology ([1]; 1 μM Oleic acid): alterations in morphology
hepatocyte lipid droplet accumulation over time ([1]; 1 μM Oleic acid, 0, 40 and 64 hours): progressive accumulation
hepatocyte free fatty acids ([1]; 1 μM Oleic acid, forty hours): shown to increase
Compound: CCCCCCCC/C=C\CCCCCCCC(=O)O [oleic acid]
lipid droplets in hepatocytes ([1]; high oleic acid concentration media, FIG. 7A): Increased concentration of lipid droplets
LSEC morphological features ([1]; oleic acid, 5 μM, 2 day exposure, FIG. 7B): Morphological features indicative of injury/stress exposure
lipid droplet accumulation, cells proximal to channel inlet compared to channel outlet ([2]; 48 hours of high fat diet of oleic acid): higher density of lipid droplet accumulation
observable fat droplets in the hepatocytes ([2]; oleic acid only vs control): significant increase in observable fat droplets
cholesterol concentration ([3]; high fat diet): observed to increase
free fatty acids concentration ([3]; high fat diet): observed to increase
number of nuclei (hepatocyte proliferation or polyploidy) ([3]; high fat diet): increase in the number of nuclei
LSEC morphology by bright field imaging [3, 11]: developed an injury morphology
lipid droplets accumulation inside co-cultured hepatocytes [3, 11]: significant increase of lipid droplets accumulation
extracellular glucose concentration ([3]; oleic acid (0.1 to 0.5 μM), 48 hours): significantly higher
cell viability (mitochondrial function) ([3]; two day high fat diet): did not result in any significant reduction in cell viability
oxidative stress markers, reactive oxygen species (ROS) ([3]; two day high fat diet): increase in reactive oxygen species

Compound: CCO [ethanol]
ethanol concentration at which modifications in glucose release levels were observed (Liver-Chip hepatocytes): above 0.32%
alcohol-induced steatosis (Liver-Chip hepatocytes; after ethanol-free recovery): reverted
cholesterol release (effluent) (Liver-Chip hepatocytes; ethanol at physiologically relevant BAC): increase of cholesterol release
cholesterol storage (Liver-Chip hepatocytes; ethanol dosing): increased cholesterol and glycogen storage
glycogen storage (Liver-Chip hepatocytes; ethanol dosing): increased cholesterol and glycogen storage
hepatocyte viability (albumin as viability marker) (Liver-Chip hepatocytes; ethanol dosing condition): sublethal
ethanol concentration significantly decreasing viability (2D models): greater than 100 mM
lipid droplet accumulation ([4]; 0.16% ethanol, 120 hours of recovery (Day 7)): statistically significant as compared to vehicle control
cholesterol levels ([4]; after 48 h of recovery): back to normal
cholesterol release ([4]; 24 h): increased
cholesterol release ([4]; 48 h): intensified

Compound: COc1ccccc1Oc1c(NS(=O)(=O)c2ccc(C(C)(C)C)cc2)nc(-c2ncccn2)nc1OCCO [bosentan]
secreted alanine transaminase (ALT) levels [5]: dose dependent increment
sodium/bile acid cotransporter expression levels [6]: reduce sodium/bile acid cotransporter and BSEP transporter expression levels in a dose-dependent fashion
secreted alanine transaminase (ALT) levels [7]: lack of response
BSEP transporter expression levels [8]: reduce sodium/bile acid cotransporter and BSEP transporter expression levels in a dose-dependent fashion

Compound: TGF-α: factor printed as activating hepatic stellate cells in FIG. 46B
hepatic stellate cell activation (hepatic stellate cells): activation of hepatic stellate cells

Compound: TGF-β: growth factor used for stellate cell activation
stellate cell activation (α-SMA staining) [9]: Stellate cell activation

Compound: O=C(CO)[C@@H](O)[C@H](O)[C@H](O)CO [fructose]
extracellular glycogen levels ([10]; 24 or 72 hours): No significant differences
triglyceride levels ([10]; 24 or 72 hours, or intestinal effluent media): No significant differences
glucose in microchannel effluent ([10]; 48 h, fructose media): observed to increase
glucose in microchannel effluent ([10]; intestinal effluent culture media, with or without fructose): no difference observed
hepatocyte cell number [10, 12]: decreased hepatocyte cell number
hepatocyte cell size [10, 12]: increased hepatocyte cell size
hepatocyte viability [10, 12]: no effect on hepatocyte viability
cholesterol levels ([10]; liver media or intestinal effluent media, 24, 48 or 72 hours): failed to significantly increase cholesterol levels
extracellular glycogen levels ([10]; low or high fructose, liver media or intestinal effluent media, 48 hours): dose-dependent decrease
triglyceride levels ([10]; low or high fructose, liver media, 48 hours): dose-dependent increase

Compound: Nc1c2c(nc3ccccc13)CCCC2 [Tacrine, tacrine]
IL-1-α (hepatocytes): accumulation
IL-1beta (hepatocytes): accumulation
IL-6 (hepatocytes): accumulation
